In patent US20240417778A1, “Methods for Nucleic Acid Cleavage” (priority 2021, published 2024):
Entries after “also recorded” stand apart in the source; their conditions may differ.

Legend:
[1] = system: RNA 69-er with a sequence that corresponds to the coronaviral pseudoknot; type: biochemical; conditions: 1 mM, 3 h incubation, 37° C.
[2] = system: RNA extracted from SARS-CoV-2; type: biochemical; conditions: 100 μM, 2 h, 37° C.
SARS-CoV-2 [3] = assay: Drug assay of SARS-CoV-2 replication on Vero CCL-81 cells (PCR); type: cell-based; conditions: Vero CCL-81, MOI 0.05, 24 h, added 1 h before or 1 h after infection
SARS-CoV-2 [4] = type: cell-based; conditions: 6 μM for 24 h, added before or after infection, vs vehicle control
SARS-CoV-2 [5] = assay: Virucidal activity on cell free virions; conditions: 6 μM, 1 h at 37° C., 1000 PFU, plaque assay
SARS-CoV-2 [6] = type: in vivo, K18-hACE2 mice; conditions: 10 mg/kg intranasally 1 hour pre- and 3 hours post-infection, day 5, plaque assay, vs vehicle
[7] = system: oligomer corresponding to the coronaviral pseudoknot; conditions: shape of MST binding curve
[8] = target: perturbed pseudoknot oligonucleotide; assay: Micro-scale thermophoresis (MST), perturbed pseudoknot; type: binding; conditions: FAM-tagged oligonucleotide 50 nM, HEPES pH 7.4, 25.0° C.
[9] = system: frameshifting in SARS-CoV-2; conditions: Kelly et al., 2020; cited from earlier work
[10] = Solubility in aqueous media
[11] = system: G4 structure found on 5′UTR of NRAS mRNA; assay: Fluorescence quenching assay; type: binding; conditions: Cy5-tagged oligonucleotide 50 nM, HEPES pH 7.4, 25.0° C.
Procedure: To prepare oligonucleotides for binding studies, oligonucleotides were dissolved at an appropriate buffer to a final concentration of 100 nM, then incubated at 95° C. with shaking for 5 min. Samples were allowed to cool at room temperature for at least 1 h before further dilutions/treatments.
Cy5-tagged oligonucleotide corresponding to G4 structure found on 5′UTR of NRAS mRNA (final concentration 50 nM) were dissolved in 20 mM HEPES pH 7.4 buffer supplemented with KCl (100 mM) and MgCl2 (10 mM) and plated on a 96-well plate. Oligonucleotides were treated with various concentrations of PDS family ligands as indicated, ranging from 5 nM to 10 μM, or a water vehicle control, followed by 30 minute incubation at 4° C. Fluorescence corresponding to Cy5 fluorophore was then measured for each oligonucleotide-small molecule/vehicle control combination using a plate reader (BMG CLARIOstar) at 25.0° C. […] Fluorescence was normalised to a vehicle control and binding curves for each molecule were obtained via a sigmoidal fit by setting the Hill Slope coefficient to 1.
PDS and its derivatives were incubated with a Cy5-functionalised oligomer corresponding to a G-quadruplex in NRAS 5′UTR, a well-established G4 model. As fluorescence quenching is proximity-induced, the signal corresponding to Cy5 is quenched upon PDS binding. […]

pseudoknot = conditions: relative to MTDB (Park et al., 2011); cited from earlier work
E. coli ribosome = assay: In vitro degradation of E. coli ribozyme (agarose gel); type: biochemical; conditions: 15 mM to 0.47 mM, 18 hours, 200 μM ribozyme
Procedure: The degradation activity was measured in an in vitro assay, targeting the E. coli ribosome. […] Evaluation was made by agarose gel analysis.

CCOC(=O)c1ccccc1NC(=O)N1CCCN(Cc2csc(C)n2)CC1 [MTDB]
degradation of RNA pseudoknot [1]: no degradation | degradation of native SARS-CoV-2 RNA on agarose gel [2]: do not | antiviral effect (viral replication, E gene and pseudoknot region RNA) (SARS-CoV-2 [3]): did not exhibit an antiviral effect; also recorded: did not inhibit viral replication | number of viral plaques (SARS-CoV-2 [4]): only showed decreased number of viral plaques when added before infection | virucidal effect (SARS-CoV-2 [5]): no virucidal effect was observed; also recorded: no virucidal effect on cell free virions | lung viral load (SARS-CoV-2 [6]): No differences in lung viral load | concentration with noticeable binding [7]: ≥ 187.5 µM | KD [8]: No appreciable binding was observed | frameshifting [9]: known to disrupt frameshifting in SARS-CoV-2 | solubility [10]: not soluble enough for KD determination using MST; also recorded: limited solubility

NCCOc1cc(C(=O)Nc2cc(OCCN)c3ccccc3n2)nc(C(=O)Nc2cc(OCCN)c3ccccc3n2)c1 [PDS, Pyridostatin]
EC50 [11]: 51 nM

CCOC(=O)c1ccccc1NC(=O)N1CCCN(Cc2ccsc2)CC1 [TDB]
binding affinity towards the pseudoknot (pseudoknot): lower binding affinity towards the pseudoknot

O=C(N[C@H](CO)[C@H](O)c1ccc([N+](=O)[O-])cc1)C(Cl)Cl [chloramphenicol, Chloramphenicol]
ribosome degradation (E. coli ribosome): no degradation

chloramphenicol-2PEG-imidazole degrader [18b]
ribosome degradation (E. coli ribosome): ribosome degradation could be observed at a concentration of 15 mM | ribosome degradation (E. coli ribosome; listed as diethylene glycol linker): degradation visible at 15 mM concentration

chloramphenicol-6PEG-imidazole degrader [18a]
ribosome degradation (E. coli ribosome): no degradation visible

chloramphenicol-ethyl-imidazole degrader [18c]
ribosome degradation (E. coli ribosome): no degradation visible
